The values below are quoted from earlier work in patent publication US6375930B2, “Membrane incorporation of texaphyrins” (Board of Regents, The University of Texas System, priority 1996, dated 2002).

For data set [1] the following is noted: require hydrophobic vehicles for administration.
For data set [2] the following is noted: Levy, Semin. Oncol. 1994.

Take “benzoporphyrin derivative [BPD verteporfin]”: in data set [1], the “solubility in aqueous solutions” value is “insoluble”. The “duration of cutaneous photosensitivity” value in data set [2] is listed as “a few days”.

On to porfimer sodium, for which the “duration of cutaneous photosensitivity” value in data set [2] is recorded as “up to 6 weeks”. On to tin purpurin, for which the “solubility in aqueous solutions” value in data set [1] is reported as “insoluble”.
